Measured values reported in ChEMBL document CHEMBL1255415, “In vitro activity of penem-1 in combination with beta-lactams against blaKPC-possessing Klebsiella pneumoniae isolates” (2010).
Values after ≈ are worked out from the molar mass of the structure shown. Active and inactive are the calls of the source. No cut-off for these calls is given here.

What was measured:
Klebsiella pneumoniae [1] = assay: Inhibition of Beta-lactamase KPC-2 in Klebsiella pneumoniae isolates assessed as reduction in antimicrobial MIC of beta-lactams by agar dilution method relative to untreated control
Klebsiella pneumoniae [2] = assay: Antimicrobial activity against blaKPC-possessing Klebsiella pneumoniae isolates assessed as susceptible isolates in presence of 4 ug/ml by agar dilution method; assay type: functional
Klebsiella pneumoniae [3] = assay: Antimicrobial activity against blaKPC-possessing Klebsiella pneumoniae isolates assessed as susceptible isolates by agar dilution method; assay type: functional
Klebsiella pneumoniae [4] = assay: Antimicrobial activity against blaKPC-possessing Klebsiella pneumoniae isolates by agar dilution method; assay type: functional
Klebsiella pneumoniae [5] = assay: Antimicrobial activity against blaKPC-possessing Klebsiella pneumoniae isolates in presence of 4 ug/ml by agar dilution method; assay type: functional

For `CCN1CCN(C(=O)N[C@@H](C(=O)N[C@@H]2C(=O)N3[C@@H]2SC(C)(C)[C@@H]3C(=O)O)c2ccccc2)C(=O)C1=O` [PIPERACILLIN], the “Reduction in beta-lactam MIC (qualitative call)” value (“Reduction in beta-lactam MIC” below) (Klebsiella pneumoniae [1]) was “Active”, the Activity (Klebsiella pneumoniae [2]) was 16.7% and the Activity (Klebsiella pneumoniae [3]) was 0%. For the same compound, the MIC50 (Klebsiella pneumoniae [4]) was ≥ 512 µg/mL, the MIC90 (Klebsiella pneumoniae [4]) was ≥ 512 µg/mL and the MIC50 (Klebsiella pneumoniae [5]) was 64 µg/mL. The MIC90 (Klebsiella pneumoniae [5]) was 128 µg/mL.
In the case of `CO/N=C(\C(=O)N[C@@H]1C(=O)N2C(C(=O)[O-])=C(C[N+]3(C)CCCC3)CS[C@H]12)c1csc(N)n1` [CEFEPIME], the “Reduction in beta-lactam MIC” value (Klebsiella pneumoniae [1]) is reported as “Active”, the Activity (Klebsiella pneumoniae [2]) is reported as 88.1% and the Activity (Klebsiella pneumoniae [3]) is reported as 7.1%. The MIC50 (Klebsiella pneumoniae [4]) was 32 µg/mL (≈ 66.6 µM), the MIC90 (Klebsiella pneumoniae [4]) was 128 µg/mL (≈ 266 µM) and the MIC50 (Klebsiella pneumoniae [5]) was 2 µg/mL. The MIC90 (Klebsiella pneumoniae [5]) was 16 µg/mL.
In the case of `C[C@H]1[C@H](NC(=O)/C(=N\OC(C)(C)C(=O)O)c2csc(N)n2)C(=O)N1S(=O)(=O)O` [AZTREONAM], the inhibition (Klebsiella pneumoniae [1]) is reported as “Active”, the Activity (Klebsiella pneumoniae [2]) is reported as 14.3% and the Activity (Klebsiella pneumoniae [3]) is reported as 0%. For the same compound, the MIC50 (Klebsiella pneumoniae [4]) was ≥ 512 µg/mL, the MIC90 (Klebsiella pneumoniae [4]) was ≥ 512 µg/mL and the MIC50 (Klebsiella pneumoniae [5]) was 16 µg/mL. The MIC90 (Klebsiella pneumoniae [5]) was 128 µg/mL.
With `CO/N=C(\C(=O)N[C@@H]1C(=O)N2C(C(=O)O)=C(COC(C)=O)CS[C@H]12)c1csc(N)n1` [CEFOTAXIME] the “Reduction in beta-lactam MIC” value (Klebsiella pneumoniae [1]) was “Active”, the Activity (Klebsiella pneumoniae [2]) was 38.1% and the Activity (Klebsiella pneumoniae [3]) was 0%. The MIC50 (Klebsiella pneumoniae [4]) was 64 µg/mL (≈ 141 µM), the MIC90 (Klebsiella pneumoniae [4]) was ≥ 512 µg/mL and the MIC50 (Klebsiella pneumoniae [5]) was 2 µg/mL. For the same compound, the MIC90 (Klebsiella pneumoniae [5]) was 4 µg/mL.
